Measured values from patent publication US20090012165A1, “PHARMACEUTICAL COMBINATION OF NSAID AND PROSTAGLANDIN COMPOUND” (priority 2007, published 2009).

Tested on: naproxen-induced gastric ulcer
Experiment: naproxen-induced gastric ulcer in rats (ulcer index 5 hours after oral dosing)
Type: in vivo, Male Crl: CD (SD) rats
Details: for Ulcer Index (Mean ± S.E.): rats; for % Inhibition of ulcer index: vs vehicle + naproxen group
Experimental: Male Crl: […] The animal was euthanized by cervical dislocation 5 hours after administration of the dosing preparation, and the stomach was removed. The stomach was filled with 10 mL of saline and fixed in 1% formalin. Then the stomach was opened along the greater curvature and gently washed with saline. The length of the major axis of each gastric ulcer was measured with digital slide gauges, and the total length of the major axes of all gastric ulcers (ulcer index) was obtained.

## COc1ccc2cc([C@H](C)C(=O)O)ccc2c1 [naproxen, reference compound]
Vehicle (0.01% Tween 80) + naproxen 200 mg/kg oral, 5 hours after administration, n=10
  Ulcer Index (Mean ± S.E.): 81.48 ± 15.05

## CC[C@H](C)CC(F)(F)C(=O)CC[C@H]1[C@H](O)CC(=O)[C@@H]1CCCCCCC(=O)O [Compound A, 13,14-dihydro-15-keto-16,16-difluoro-18(S)-methyl-PGE1]
Compound A 1 μg/kg + naproxen 200 mg/kg oral, 5 hours
  Ulcer Index (Mean ± S.E.): 63.47 ± 10.87
Compound A 1 μg/kg + naproxen 200 mg/kg
  % Inhibition of ulcer index: 22%
Compound A 10 μg/kg + naproxen 200 mg/kg oral, 5 hours, p<0.05 vs vehicle + naproxen
  Ulcer Index (Mean ± S.E.): 12.15 ± 3.45
Compound A 10 μg/kg + naproxen 200 mg/kg
  % Inhibition of ulcer index: 85%
Compound A 10 μg/kg and 100 μg/kg + naproxen 200 mg/kg groups compared to vehicle + naproxen group
  reduction of ulcer formation, significance (in words): Significant reductions of ulcer formation
Compound A 100 μg/kg + naproxen 200 mg/kg oral, 5 hours, p<0.01 vs vehicle + naproxen
  Ulcer Index (Mean ± S.E.): 0.50 ± 0.40
Compound A 100 μg/kg + naproxen 200 mg/kg
  % Inhibition of ulcer index: 99.4%
Compound A at 1, 10 and 100 μg/kg with naproxen 200 mg/kg, dose-dependent
  ulcer formation induced by naproxen (in words): reduced
Overall conclusion of Example 1
  protective effect against ulcer formation in combination with NSAID (in words): potent protective effect against ulcer formation

## Cc1c(OCC(F)(F)F)ccnc1C[S+]([O-])c1nc2ccccc2[nH]1 (stereo not shown) [Lansoprazole, lansoprazole, reference compound]
Lansoprazole 1000 μg/kg + naproxen 200 mg/kg oral, 5 hours
  Ulcer Index (Mean ± S.E.): 68.09 ± 7.61
Lansoprazole 1000 μg/kg + naproxen 200 mg/kg
  % Inhibition of ulcer index: 16%
Lansoprazole 1000 μg/kg with naproxen
  effect on naproxen-induced gastric ulcers (in words): did not have a significant effect
